Like-named read-outs stand apart in the source and are kept apart here. Bridge positions count the residues as written; N and C are the ends. Square brackets hold non-standard residues; d marks the D form. Peptide text beside a SMILES is read from it. * marks the point of attachment. X2 = CN1C[C@H](CSCC(=O)*)C[C@@H]2c3cccc4[nH]cc(c34)C[C@H]21; 4Pal = N[C@@H](Cc1ccncc1)C(=O)O
Tests used:
[1] = biological target: T1, hSSTR5 (Homo sapiens, UniProt P35346); test: Somatostatin receptor radioligand binding assay (hSSTR5); conditions: CHO-K1 cell membranes; 0.05 nM [125I-Tyr]-[DPhe-cyclo(Cys-Tyr-DTrp-Lys-Val-Cys)-Thr-NH2]; 60 minutes at 25°C; read-out: hSSTR5 Ki (nM) ± SEM
T1 construct: expressed in transfected cells; host or cells: CHO-K1 (ATCC), pcDNA3.1, G418-selected clonal line; membranes
T1 sequence (P35346 whole entry): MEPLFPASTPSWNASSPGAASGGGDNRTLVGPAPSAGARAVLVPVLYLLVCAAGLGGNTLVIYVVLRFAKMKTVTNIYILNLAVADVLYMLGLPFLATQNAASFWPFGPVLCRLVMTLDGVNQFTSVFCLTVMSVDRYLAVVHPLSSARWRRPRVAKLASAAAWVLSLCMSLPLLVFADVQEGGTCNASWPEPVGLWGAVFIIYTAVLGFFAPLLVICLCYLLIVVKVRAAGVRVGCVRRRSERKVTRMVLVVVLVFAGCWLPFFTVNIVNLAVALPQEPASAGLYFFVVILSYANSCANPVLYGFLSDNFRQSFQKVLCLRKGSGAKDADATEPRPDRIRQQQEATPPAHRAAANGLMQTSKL
Method: (§5) The affinities of a test compound for the human somatostatin receptors were determined by radioligand binding assays in CHO-K1 cells stably transfected with each of the human somatostatin receptor subtypes, hSSTR1-5. […] Clonal cell lines stably expressing each of the somatostatin receptors were obtained by transfection into CHO-K1 cells (ATCC) and subsequently selected with culture media containing 0.8 mg/mL of G418 (Life Technologies).
(§6) Membranes for in vitro receptor binding assays were obtained by the following procedures. […] The supernatant containing the plasma membranes was centrifuged at 100,000 x g for 30 minutes and the pellet was resuspended in buffer containing 20 mM glycine-glycine, 1 mM MgCl2, 250 mM sucrose, pH 7.2, for storage at -80°C.
(§7) For the SSTR1, 2 and 5 assays, membranes and various concentrations of test compounds were incubated in 96-well plates for 60 minutes at 25°C with 0.05 nM [^125I-Tyr^11]-SRIF-14 (for hSSTR1; PerkinElmer Life Science), 0.05 nM [^125I-Tyr]-seglitide (for hSSTR2; PerkinElmer Life Science) or 0.05 nM [^125I-Tyr]-[DPhe-cyclo(Cys-Tyr-DTrp-Lys-Val-Cys)-Thr-NH2] (for hSSTR5; PerkinElmer Life Science) in 50 mM HEPES, 0.2% BSA, 0.1 mM MgCl2, pH 7.5.

[2] = biological target: T2, hSSTR1 (Homo sapiens, UniProt P30872); test: Somatostatin receptor radioligand binding assay (hSSTR1)
T2 construct: expressed in transfected cells; host or cells: CHO-K1 (ATCC), pcDNA3.1, G418-selected clonal line; membranes
T2 sequence (P30872 whole entry): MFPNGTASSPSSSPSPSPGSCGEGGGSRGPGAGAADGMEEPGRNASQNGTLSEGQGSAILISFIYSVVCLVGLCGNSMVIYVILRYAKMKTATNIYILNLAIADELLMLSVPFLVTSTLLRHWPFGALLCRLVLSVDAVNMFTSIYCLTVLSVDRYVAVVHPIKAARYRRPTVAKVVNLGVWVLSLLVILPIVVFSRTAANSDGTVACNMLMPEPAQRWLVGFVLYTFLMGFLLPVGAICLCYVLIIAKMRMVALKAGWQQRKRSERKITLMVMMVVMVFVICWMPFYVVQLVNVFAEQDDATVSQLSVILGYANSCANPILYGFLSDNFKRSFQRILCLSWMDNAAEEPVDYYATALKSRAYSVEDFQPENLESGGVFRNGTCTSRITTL
Method: as §5, §6, §7

[3] = biological target: T3, hDRD2 (Homo sapiens, UniProt P14416); test: biochemical; type: binding; set-up: expressed in transfected cells; host or cells: CHO-K1, pcDNA3.1/GS, zeocin-selected clonal line; membranes
T3 sequence (P14416 whole entry): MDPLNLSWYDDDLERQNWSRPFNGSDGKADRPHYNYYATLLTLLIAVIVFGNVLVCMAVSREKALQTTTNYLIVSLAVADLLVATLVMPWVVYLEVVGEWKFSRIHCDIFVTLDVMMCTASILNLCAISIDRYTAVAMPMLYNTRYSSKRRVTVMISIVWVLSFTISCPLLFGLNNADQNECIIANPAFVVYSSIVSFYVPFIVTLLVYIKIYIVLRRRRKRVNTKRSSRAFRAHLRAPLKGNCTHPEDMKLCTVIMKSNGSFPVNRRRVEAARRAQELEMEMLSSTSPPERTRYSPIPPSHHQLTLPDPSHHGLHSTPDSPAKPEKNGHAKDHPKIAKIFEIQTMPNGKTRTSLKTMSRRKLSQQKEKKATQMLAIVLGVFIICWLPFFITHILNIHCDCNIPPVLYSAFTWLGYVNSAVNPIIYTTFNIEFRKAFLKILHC

[4] = biological target: T4, hSSTR4 (Homo sapiens, UniProt P31391); test: Somatostatin receptor radioligand binding assay (hSSTR4); conditions: CHO-K1 cell membranes; 0.05 nM [125I-Tyr11]-SRIF-14; 60 minutes at 25°C; read-out: hSSTR4 Ki (nM) ± SEM
T4 construct: expressed in transfected cells; host or cells: CHO-K1 (ATCC), pcDNA3.1, G418-selected clonal line; membranes
T4 sequence (P31391 whole entry): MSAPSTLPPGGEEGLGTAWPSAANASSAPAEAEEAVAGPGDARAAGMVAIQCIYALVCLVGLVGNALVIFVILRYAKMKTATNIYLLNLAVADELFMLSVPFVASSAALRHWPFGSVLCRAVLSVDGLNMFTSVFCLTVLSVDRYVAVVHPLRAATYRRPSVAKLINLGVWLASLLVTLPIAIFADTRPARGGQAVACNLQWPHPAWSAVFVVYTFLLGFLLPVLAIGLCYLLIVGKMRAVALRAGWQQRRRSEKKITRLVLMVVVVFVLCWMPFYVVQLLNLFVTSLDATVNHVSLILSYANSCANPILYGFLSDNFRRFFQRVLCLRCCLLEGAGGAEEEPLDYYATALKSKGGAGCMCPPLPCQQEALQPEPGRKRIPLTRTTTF
Method: (§1) The affinities of a test compound for the human somatostatin receptors were determined by radioligand binding assays in CHO-K1 cells stably transfected with each of the human somatostatin receptor subtypes, hSSTR1-5. The cDNA coding sequences of hSSTR1 (GenBank accession No. NM_001049.1), hSSTR2 (GenBank accession No. XM_012697.1), hSSTR3 (GenBank accession No. XM_009963.1), hSSTR4 (GenBank accession No. NM_001052.1), and hSSTR5 (GenBank accession No. XM_012565.1) were subcloned into the mammalian expression vector pcDNA3.1 (Life Technologies). Clonal cell lines stably expressing each of the somatostatin receptors were obtained by transfection into CHO-K1 cells (ATCC) and subsequently selected with culture media containing 0.8 mg/mL of G418 (Life Technologies).
(§2) Membranes for in vitro receptor binding assays were obtained by the following procedures. CHO-K1 cells expressing one of the somatostatin receptors were homogenized in ice-cold buffer with 10 mM Tris-HCl, 5 mM EDTA, 3 mM EGTA, 1 mM phenylmethylsuphonyl fluoride, pH 7.6, using Polytron PT10-35GT (Kinematica) at 18,000 rpm for 30 seconds and centrifuged at 500 x g for 10 minutes. The supernatant containing the plasma membranes was centrifuged at 100,000 x g for 30 minutes and the pellet was resuspended in buffer containing 20 mM glycine-glycine, 1 mM MgCl2, 250 mM sucrose, pH 7.2, for storage at -80°C.
(§3) For the hSSTR3 and 4 assays, membranes and various concentrations of test compounds were incubated in 96-well plates for 60 minutes at 25°C with 0.05 nM [^125I-Tyr^11]-SRIF-14 (PerkinElmer Life Science) in 50 mM HEPES, 0.2% BSA, 5 mM MgCl2, 200 KIU/mL trasylol, 0.02 mg/mL bacitracin, and 0.02 mg/mL phenylmethylsuphonyl fluoride, pH 7.5.
(§4) The incubations were terminated by rapid filtration through GF/C glass microfiber filter plates (pre-wet with 0.3% polyethyleneimine and 0.1 % BSA) using a 96-well cell harvester (Brandel). Plates were washed six times with 1 mL/well aliquots of ice-cold buffer containing 50 mM Tris buffer, pH 7.7. Specific binding was defined as the total radioligand bound minus the bound in the presence of 1000 nM SRIF-14.

[5] = biological target: T3, hDRD2; test: cell-based; set-up: host or cells: 'Cells expressing hDRD2'; conditions: for Emax: read-out: hDRD2 %Emax ± SEM
Method: The ability of select compounds according to the present invention to activate hSSTR2 and hDRD2 was determined by the intracellular calcium mobilization assay using FLIPR Calcium 4 assay kit (Molecular Devices).
Cells expressing hSSTR2 or hDRD2 were plated in 384-well microplates in tissue culture media and incubated for 16-24 hours at 37°C in a humidified atmosphere with 5% CO2. Medium was replaced by loading buffer containing Hank's buffered saline, 20 mM HEPES, 2.5 mM probenecid and Calcium 4 dye, and the plates were incubated at 37°C for 60 minutes.

[6] = biological target: T5, hSSTR2 (Homo sapiens, UniProt P30874); test: Somatostatin receptor radioligand binding assay (hSSTR2);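 also: radioligand displacement on membranes of CHO-K1 cells stably transfected with human SSTR2, specific binding taken as total minus binding left with 1000 nM SRIF-14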
T5 construct: host or cells: 'Cells expressing hSSTR2'
T5 sequence (P30874 whole entry): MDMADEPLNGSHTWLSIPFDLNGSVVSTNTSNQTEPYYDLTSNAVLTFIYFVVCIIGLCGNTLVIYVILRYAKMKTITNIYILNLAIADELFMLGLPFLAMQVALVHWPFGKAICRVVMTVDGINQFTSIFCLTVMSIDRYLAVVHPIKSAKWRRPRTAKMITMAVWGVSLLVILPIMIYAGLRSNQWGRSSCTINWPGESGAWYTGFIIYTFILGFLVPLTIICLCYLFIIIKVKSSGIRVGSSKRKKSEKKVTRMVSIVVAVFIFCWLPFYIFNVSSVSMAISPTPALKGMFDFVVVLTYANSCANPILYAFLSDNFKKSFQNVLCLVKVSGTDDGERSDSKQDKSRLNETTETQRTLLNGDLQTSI

[7] = biological target: T6, hSSTR3 (Homo sapiens, UniProt P32745); test: Somatostatin receptor radioligand binding assay (hSSTR3); conditions: CHO-K1 cell membranes; 0.05 nM [125I-Tyr11]-SRIF-14; 60 minutes at 25°C; read-out: hSSTR3 Ki (nM) ± SEM
T6 construct: expressed in transfected cells; host or cells: CHO-K1 (ATCC), pcDNA3.1, G418-selected clonal line; membranes
T6 sequence (P32745 whole entry): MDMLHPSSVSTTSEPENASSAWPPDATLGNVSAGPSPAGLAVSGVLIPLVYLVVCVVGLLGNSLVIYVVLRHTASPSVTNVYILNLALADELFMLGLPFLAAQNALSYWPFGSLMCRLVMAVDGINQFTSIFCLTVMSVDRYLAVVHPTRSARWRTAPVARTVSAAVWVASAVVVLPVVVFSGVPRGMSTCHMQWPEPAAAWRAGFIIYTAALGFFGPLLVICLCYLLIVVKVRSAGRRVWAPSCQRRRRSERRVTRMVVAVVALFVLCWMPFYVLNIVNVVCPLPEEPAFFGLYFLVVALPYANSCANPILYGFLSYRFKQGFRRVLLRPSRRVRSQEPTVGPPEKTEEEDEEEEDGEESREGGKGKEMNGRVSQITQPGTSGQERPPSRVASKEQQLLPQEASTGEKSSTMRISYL
Method: as §1, §2, §3, §4

[8] = biological target: T5, hSSTR2; test: Intracellular calcium mobilization assay (FLIPR Calcium 4), hSSTR2; type: cell-based;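 also: agonist activity measured in cells expressing hSSTR2, seeded in 384-well plates, loaded with Calcium 4 dye, read-out as rise in intracellular calcium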
[9] = test system: pituitary tumor cells of acromegalic patients presenting with macroadenoma; test: Human pituitary adenoma cell growth hormone release assay; type: cell-based; conditions: incubated for 18 hours; Growth hormone levels in the medium by AlphaLISA; Figure 5
Method: • Figure 1 is a graph showing the Growth hormone suppressing activity of Compound 4 (see Table I hereinbelow for its chemical name and its corresponding structural representation) on pituitary tumor cells of acromegalic patients presenting with macroadenoma. Various concentrations of Compound 4 were added to the medium and the cells were incubated for 18 hours before measurement of Growth hormone levels in the medium using the AlphaLISA Growth Hormone Immunoassay Research kit (PerkinElmer). • Figure 2 is a graph showing the Growth hormone suppressing activity of Compounds 5 , 6, and 7 (see Table I hereinbelow for their chemical name and their corresponding structural representation) on pituitary tumor cells of acromegalic patients presenting with macroadenoma. Various concentrations of Compounds 5, 6, and 7 were added to the medium and the cells were incubated for 18 hours before measurement of Growth hormone levels in the medium using the AlphaLISA Growth Hormone Immunoassay Research kit (PerkinElmer). • Figure 3 is a graph showing the Growth hormone suppressing activity of Compounds 4, 6, 7, 8, and 9 (see Table I hereinbelow for their chemical name and their corresponding structural representation) on pituitary tumor cells of acromegalic patients presenting with macroadenoma. […]

[10] = CHO-K1 cell membranes, 0.05 nM [125I-Tyr11]-SRIF-14, 60 minutes at 25°C, read-out: hSSTR1 Ki (nM) ± SEM
[11] = CHO-K1 cell membranes, […] [3H]-spiperone, 60 minutes at 25°C, read-out: hDRD2 Ki (nM) ± SEM
[12] = CHO-K1 cell membranes, 0.05 nM [125I-Tyr]-seglitide, 60 minutes at 25°C, read-out: hSSTR2 Ki (nM) ± SEM
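For Emax in this document: agonist activity at human DRD2 in DRD2-expressing cells, read as intracellular calcium mobilization with a FLIPR Calcium 4 fluorescent dye.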

Compound	Ki [1] [nM]	Ki [2, 10] [nM]	Ki [3, 11] [nM]	Ki [4] [nM]	Emax [5] [%]	Ki [6, 12] [nM]	Ki [7] [nM]	improvement in EC50 and/or %Emax over Reference Compound B ([8]; receptor not named)	Growth hormone suppressing activity compared to the parent somatostatin analogs [9]	Ki [2] [nM]	Ki [3] [nM]	Ki [6] [nM]	improvement in %Emax over Reference Compound C ([8]; receptor not named)	EC50 [5] [nM]	EC50 [8] [nM]	improvement in EC50 over Reference Compound A ([8]; p value (Student's t-test, one-tailed) < 0.05, receptor not named)
C[C@@H](O)[C@@H]1NC(=O)[C@H](CCCCN)NC(=O)[C@@H](Cc2c[nH]c3ccccc23)NC(=O)[C@H](Cc2ccccc2)NC(=O)[C@H](Cc2ccccc2)NC(=O)[C@H](CCCNC(=N)N)NC(=O)[C@H](NC[C@H](Cc2ccc(O)cc2)NC(=O)CSC[C@@H]2C[C@@H]3c4cccc5[nH]cc(c45)C[C@H]3N(C)C2)CCCCNC(=O)[C@H](Cc2ccc(F)cc2)NC1=O [Compound 5, Dop1-Tyr-psi(CH2NH)-cyclo(DLys-Arg-Phe-Phe-DTrp-Lys-Thr-4FPhe)]	1.65 ± 0.8	9 ± 0.3	28.5 ± 12.8	25.2 ± 9	98.7 ± 2.3	0.34 ± 0.09	1.5 ± 0.3	statistically significant improvement in EC50 and/or %Emax	enhanced Growth hormone suppressing activity							
CC(=O)N(CCC(=O)NC(CN[C@@H]1CCCCNC(=O)[C@H](Cc2ccc(F)cc2)NC(=O)[C@H]([C@@H](C)O)NC(=O)[C@H](CCCCN)NC(=O)[C@@H](Cc2c[nH]c3ccccc23)NC(=O)[C@H](Cc2ccccc2)NC(=O)[C@H](Cc2ccccc2)NC(=O)[C@H](CCCNC(=N)N)NC1=O)Cc1ccc(O)cc1)C[C@@H]1C[C@@H]2c3cccc4[nH]cc(c34)C[C@H]2N(C)C1 (single isomer, unassigned) [Compound 27, 3-[N-acetyl-N-(D-6-methyl-8β-ergolinylmethyl)]-aminopropionyl-Tyr-psi(CH2NH)-cyclo(DLys-Arg-Phe-Phe-DTrp-Lys-Thr-4FPhe)]	0.53 ± 0.1			7.3 ± 1.3	86.3 ± 8		0.9 ± 0.1			24.4 ± 12	277 ± 55.5	0.32 ± 0.04				
C[C@@H](O)[C@@H]1NC(=O)[C@H](CCCCN)NC(=O)[C@@H](Cc2c[nH]c3ccccc23)NC(=O)[C@H](Cc2ccncc2)NC(=O)[C@H](Cc2ccccc2)NC(=O)[C@H](CCCNC(=N)N)NC(=O)[C@H](NC[C@H](CCCCNC(=O)CSC[C@@H]2C[C@@H]3c4cccc5[nH]cc(c45)C[C@H]3N(C)C2)NC(=O)CSC[C@@H]2C[C@@H]3c4cccc5[nH]cc(c45)C[C@H]3N(C)C2)CCCCNC(=O)[C@H](Cc2ccc(O)cc2)NC1=O [Compound 8, Dop1-Lys(Dop1)-psi(CH2NH)-cyclo(DLys-Arg-Phe-4Pal-DTrp-Lys-Thr-Tyr)]	1.49 ± 0.3	106 ± 7.9	113 ± 35	60.7 ± 15.7	94.7 ± 0.8	0.21 ± 0.08	7.5 ± 0.3						statistically significant improvement in %Emax			
C[C@@H](O)[C@@H]1NC(=O)[C@H](CCCCN)NC(=O)[C@@H](Cc2c[nH]c3ccccc23)NC(=O)[C@H](Cc2ccncc2)NC(=O)[C@H](Cc2ccccc2)NC(=O)[C@H](CCCNC(=N)N)NC(=O)[C@H](NC[C@H](CCCCNC(=O)CSC[C@@H]2C[C@@H]3c4cccc5[nH]cc(c45)C[C@H]3N(C)C2)NC(=O)CSC[C@@H]2C[C@@H]3c4cccc5[nH]cc(c45)C[C@H]3N(C)C2)CCCCNC(=O)[C@H](Cc2ccccc2)NC1=O [Compound 9, Dop1-Lys(Dop1)-psi(CH2NH)-cyclo(DLys-Arg-Phe-4Pal-DTrp-Lys-Thr-Phe)]	1.54 ± 0.3	41.9 ± 21.1	39.2 ± 8.3	24 ± 3.6	92.8 ± 3.8	0.13 ± 0.06	4 ± 0.5						statistically significant improvement in %Emax			
C[C@@H](O)[C@@H]1NC(=O)[C@H](CCCCN)NC(=O)[C@@H](Cc2c[nH]c3ccccc23)NC(=O)[C@H](Cc2ccncc2)NC(=O)[C@H](Cc2ccccc2)NC(=O)[C@H](CCCNC(=N)N)NC(=O)[C@H](NC[C@H](Cc2ccc(O)cc2)NC(=O)CSC[C@@H]2C[C@@H]3c4cccc5[nH]cc(c45)C[C@H]3N(C)C2)CCCCNC(=O)[C@H](Cc2ccccc2)NC1=O [Compound 4, Dop1-Tyr-psi(CH2NH)-cyclo(DLys-Arg-Phe-4Pal-DTrp-Lys-Thr-Phe)]	0.92 ± 0.1	38.1 ± 12.5	182.5 ± 1.7	93.5 ± 47.7	106 ± 2.4	0.12 ± 0.01	10.6 ± 0.5	statistically significant improvement in EC50 and/or %Emax	enhanced Growth hormone suppressing activity							
C[C@@H](O)[C@@H]1NC(=O)[C@H](CCCCN)NC(=O)[C@@H](Cc2c[nH]c3ccccc23)NC(=O)[C@H](Cc2ccncc2)NC(=O)[C@H](Cc2ccccc2)NC(=O)[C@H](CCCNC(=N)N)NC(=O)[C@H](NC(=O)CSC[C@@H]2C[C@@H]3c4cccc5[nH]cc(c45)C[C@H]3N(C)C2)CCCCNC(=O)[C@H](Cc2ccc(O)cc2)NC1=O [Compound 25, Dop1-cyclo(DLys-Arg-Phe-4Pal-DTrp-Lys-Thr-Tyr)] (X2-[dK]RF[4Pal][dW]KTY; lactam 1-C)	0.95 ± 0.1				82.5 ± 7.6					41.9 ± 17.6	272 ± 119	0.05 ± 0.01		27 ± 3.3	3.4 ± 1	statistically significant improvement in EC50

Source: EP2914280B1, “SOMATOSTATIN-DOPAMINE CHIMERIC ANALOGS” (IPSEN PHARMA S.A.S., priority 2012, dated 2014)
